Results as given in patent US6476043B1, “Use of camptothecin derivatives, with reduced gastrointestinal toxicity” (Aventis Pharma S.A., priority 1998, dated 2002).

Tests used:
[1] = mice, CPT-11 40 mg/kg i.v.; CPT-11 group versus CPT-11/NaCl group, days 1 and 5
Method: The body weight is measured on days 1, 3, 6 and 8. The plasma samples for the toxicokinetic analysis are taken on days 1 and 5. […] The relative and absolute weights of the thymus, of the spleen and of the testicles are measured, and the complete gastrointestinal tract, the sternal bone marrow, the thymus, the spleen, the testicles and the epididymes are removed from all the mice and subjected to examination under a microscope.

[2] = test system: mammary adenocarcinoma MA16/C; experiment: Study IV: effect of oral sodium chloride solution on the antitumour activity of intravenous CPT-11
Text: A Log tumour cell kill value of 0.7 corresponds to minimum activity, while a value greater than 2.8 corresponds to a high level of activity.

CD1 male mice = experiment: Study I: protective effect of oral sodium chloride solution on the intestinal toxicity of intravenous CPT-11; assay type: in vivo
Method: The body weight is recorded on days 1, 6, 11 and 13. […] The complete gastrointestinal tract is removed from all of the mice. The gastrointestinal tract of the mice which survived to the end of the observation period is subjected to examination under a microscope.

Method for female Beagle dogs: The animals are kept with no administration for 2 days after the final administration of sodium chloride at 9 g/l (up to day 9).
The body weight is recorded during the pretest period and on days 5 and 9. The animals are sacrificed and autopsied on day 9. Representative tissue samples taken from the gastrointestinal tract are removed from all the animals and subjected to examination under a microscope.

Structure (SMILES)	severity of gastrointestinal lesions (degeneration of the mucosa) (female Beagle dogs; CPT-11 20 mg/kg single i.v. dose on day 6, autopsy day 9)	redness on the mucosa of the large intestine (frequency) (female Beagle dogs; CPT-11 20 mg/kg single i.v. dose, CPT-11 group compared with CPT-11/NaCl group)	areas under the curve (AUC) [1]	maximum plasma concentrations (Cmax) [1]	total cumulative dose at the maximum nontoxic dose ([2]; C3H/HeN female mice carrying MA16/C, i.v. for 5 consecutive days) [mg/kg]	maximum loss of body weight ([2]; at the maximum nontoxic dose, day 11 (CPT-11 group), day 12 (CPT-11/NaCl group)) [%]	Log cell kill value ([2]; mammary adenocarcinoma MA16/C s.c. in C3H/HeN female mice, at the maximum nontoxic dose)	loss of body weight (CD1 male mice; CPT-11 40 mg/kg i.v. days 6 to 10, CPT-11 group compared with CPT-11/NaCl group)	severity of microscopic intestinal lesions (loss of crypts, shortening of villi) (CD1 male mice; CPT-11 40 mg/kg i.v. days 6 to 10, autopsy day 13, small intestine)	mortality linked to the administration of CPT-11 (CD1 male mice; CPT-11 40 mg/kg i.v. days 6 to 10, observed on days 6 and 7, dead/total mice)
CCc1c2c(nc3ccc(OC(=O)N4CCC(N5CCCCC5)CC4)cc13)-c1cc3c(c(=O)n1C2)COC(=O)[C@]3(O)CC [CPT-11, irinotecan]	moderate to pronounced	more common	identical	identical	118	10	1.7	greater	moderate to pronounced	7/15
CCc1c2c(nc3ccc(O)cc13)-c1cc3c(c(=O)n1C2)COC(=O)[C@]3(O)CC [SN-38]			identical	identical						
